Test results as given in patent publication US7001588B2, “Expanded porphyrin compositions for tumor inhibition” (Cylene Pharmaceuticals, priority 2002, dated 2006).
“Also recorded” adds a separate entry of the source. Like-named read-outs stand apart in the source and are kept apart here.

Tests used:
[1] = tested on: human telomeric G-quadruplex; experiment: G-quadruplex polymerase stop assay, human telomeric template; format: biochemical; conditions: for EC50: Taq polymerase stop product, four TTAGGG repeats template, 37° C., read-out: Huam Telomeric (ED50 μM)
[2] = tested on: c-MYC expression in HeLa S3 cells; experiment: Effect on c-MYC transcription (real-time PCR, normalized to β-actin); format: cell-based, human; conditions: at high (100 μM) concentration, 24 h
Method: In this example, the various porphyrins were tested for their effect on c-MYC RNA levels normalized to the levels of β-actin RNA production.
TMPyP4, at a concentration of 100 μM, was also included for comparison.
Cell cultures were permitted to reach ˜50% confluency before test compound was added for 24 hour treatments. This was adjusted as necessary depending on treatment times. Test compounds were diluted in media in which the cells were normally cultured. Cells were washed once with PBS, and new media containing compound was added directly to the flask. Cells were harvested concurrently with untreated cells. Timepoints were collected in duplicate for each treatment.
RNA was extracted as follows: Cell pellets were lysed in Buffer RA I supplemented with 1% β-mercaptoethanol and RNA extracted according to the protocol included with the kit, and eluted in 50 μl of nuclease-free water included in the kit. RNA was quantitated by ultraviolet spectrophotometry, resuspended to a convenient concentration for downstream applications, and stored at −80° C. […]
Real-time PCR was performed using the QuantiTect SYBR Green PCR Kit (Qiagen). […]
The reactions were incubated in a DNA Engine Opticon Continuous Fluorescence Detector (MJ Research) as follows: 95° C., 14 min; (95° C., 1 min; 59° C., 1 min, 10 sec; 72° C., 1 min, 30 sec; plate read for fluorescence) 40×; 72° C., 10 min. […]

[3] = target: c-MYC G-quadruplex (PU27 c-MYC sequence); experiment: G-quadruplex polymerase stop assay, PU27 c-MYC template; format: biochemical; conditions: for EC50: Taq polymerase stop product, PU27 c-MYC template, 55° C., read-out: c-MYC (ED50 μM); for fold selectivity/preference for the c-MYC G-quadruplex over the human telomeric G-quadruplex: from ED50 values
Duplex DNA = experiment: Polymerase stop assay, pausing at primer position (duplex product); format: biochemical; conditions: for Duplex DNA (ED30 μM): normalized percentage of duplex product; for Duplex DNA ED30, fold in parentheses (relative to c-MYC ED50): value in parentheses (×)
Method: These were synthesized and purified as described above. Labeled primer (100 nM) and template DNA (100 nM) were annealed in an annealing buffer (50 mM Tris-HCl, pH 7.5, 10 mM NaCl) by heating to 95° C. and then slowly cooled to room temperature. […] KCl and NaCl (10 mM each) were added to the reaction. Taq DNA polymerase was added, and the mixture was incubated at 55° C. for 20 min.
Pausing at the G-quadruplex forming site is quantified as the normalized percentage of stop product with respect to the total intensity per lane. […] This is quantified as the normalized percentage of duplex product with respect to the total intensity per lane.

c-MYC G-quadruplex = experiment: Photomediated strand cleavage reaction
HeLa S3 cells = experiment: In vitro cytotoxicity assay (CellTiter 96 MTS); format: cell-based, human
Method: HeLa S3 (human cervical carcinoma metastasis were obtained from ATCC, and were cultured in Dulbecco's modification of Eagle's Medium (DMEM, Cellgro) with 10% FBS, 50 U/ml penicillin G sodium, 50 U/ml streptomycin sulfate. Adherent cells were grown to 80% confluency and passaged at 1:10 in the following fashion. The medium was aspirated by vacuum, and the cells were washed with 1×PBS (Cellgro). Sufficient trypsin (Gibco/BRL) was added to cover the cells, and cells were incubated at room temperature for approximately 3 min, or until cells detached from the flask with firm tapping. The trypsin was neutralized with an equal volume of culture medium, and the cells were counted using a haemocytometer and passaged at 1:10 into fresh medium. […]
In vitro cytotoxicity assays were performed using the CellTiter 96 Non-Radioactive Cell Proliferation Assay (Promega Corp., Madison, Wis.). […] Absorbance was measured using a Wallac Victor Multilabel Counter (Perkin Elmer, Shelton, Conn.) at 490 nm. Data were expressed as the percentage of survival of control calculated from the absorbance corrected for background absorbance. The surviving fraction of cells was determined by dividing the mean absorbance values of the test agents by the mean absorbance values of untreated control.

5,10,15,20-tetra(N-methyl-3-pyridyl)-26,28-diselena sapphyrin chloride [Se2SAP]
interaction with the human telomeric G-quadruplex structure (ED50 can't be calculated) [1]: only very little interaction
pausing in the polymerase synthesis at the G-quadruplex forming site ([1]; at 20 μM, template containing human telomeric sequence, FIG. 5B): little pausing
inhibitory effect on c-MYC expression [2]: comparable to TMPyP4; also recorded: same as that of TMPyP4
EC50 [3]: 0.025 µM
fold selectivity/preference for the c-MYC G-quadruplex over the human telomeric G-quadruplex [3]: greater than 1,000 fold
concentration giving complete arrest of the polymerase synthesis at the G-quadruplex forming site ([3]; template containing c-MYC sequence, FIG. 5A): 0.04 µM
duplex (or single strand) DNA binding, in words (Duplex DNA): little or no duplex binding activity; also recorded: absence of duplex binding
photoinduced cleavage of c-MYC G-quadruplex / photoactivity (c-MYC G-quadruplex; compared to TMPyP4, FIG. 7): minimal cleavage; also recorded: not photoactive

C[n+]1cccc(-c2c3nc(c(-c4ccc[n+](C)c4)c4ccc([nH]4)c(-c4ccc[n+](C)c4)c4nc(c(-c5ccc[n+](C)c5)c5ccc2[nH]5)C=C4)C=C3)c1 [TMPyP3]
EC50 [1]: 19.5 µM
EC50 (HeLa S3 cells): 43.4 µM
EC50 [3]: 2.34 µM
fold selectivity/preference for the c-MYC G-quadruplex over the human telomeric G-quadruplex [3]: 8 fold
Duplex DNA (ED30 μM) (Duplex DNA): >50 (>50) μM
Duplex DNA ED30, fold in parentheses (relative to c-MYC ED50) (Duplex DNA): >50 (>50)

C[n+]1ccc(-c2c3nc(c(-c4cc[n+](C)cc4)c4ccc([nH]4)c(-c4cc[n+](C)cc4)c4ccc([nH]4)c(-c4cc[n+](C)cc4)c4nc2C=C4)C=C3)cc1 [TMPyP4]
EC50 [1]: 18.9 µM
EC50 (HeLa S3 cells; HeLa S3, 4 days, MTS, FIG. 8, read-out: cytotoxicity ED50): 25.6 µM
EC50 [3]: 0.99 µM
fold selectivity/preference for the c-MYC G-quadruplex over the human telomeric G-quadruplex [3]: 19 fold
duplex (or single strand) DNA binding, in words (Duplex DNA): little or no duplex binding activity
Duplex DNA (ED30 μM) (Duplex DNA): >50 (>50) μM
Duplex DNA ED30, fold in parentheses (relative to c-MYC ED50) (Duplex DNA): >50 (>50)
photoinduced cleavage of c-MYC G-quadruplex (c-MYC G-quadruplex; at 1 μM, FIG. 6 lane 2): considerable cleavage pattern
